# Results reported in US20250145594A1, “MODULATORS OF THE INTEGRATED STRESS PATHWAY” (Calico Life Sciences LLC, priority 2020, published 2025).
# System: ATF4 luciferase reporter in HEK293T cells
# Experiment: ATF4-Luc assay (in vitro model of VWMD)
# Format: cell-based, human
# Conditions: Homo sapiens, HEK-293T, 7 h, HEK293T cells carrying the ATF4 luciferase reporter, 1 μg/mL tunicamycin, One Glo luminescence
# Outline: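 Tunicamycin (1 μg/mL) stress with co-added compound for 7 hours in HEK293T cells stably carrying an ATF4 5′-UTR–luciferase reporter. EC50 values come from the luminescent signal (One Glo).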
row,SMILES,EC50 [nM]
1,"CC(=O)N1CC=C(c2cnn(C34CC(NC(=O)[C@H]5C[C@@H](O)c6cc(Cl)ccc6O5)(C3)C4)c2)CC1 [Compound 340, (2R,4R)—N-{3-[4-(1-acetyl-1,2,3,6-tetrahydropyridin-4-yl)-1H-pyrazol-1-yl]bicyclo[1.1.1]pentan-1-yl}-6-chloro-4-hydroxy-3,4-dihydro-2H-1-benzopyran-2-carboxamide]",50 to 250
2,"O=C(CO[C@H]1C[C@@H](OC(F)(F)F)C1)NC12CCC(NC(=O)[C@H]3C[C@@H](O)c4cc(Cl)ccc4O3)(CC1)C[C@@H]2O [Compound 117, (2R,4R)-6-chloro-4-hydroxy-N-[(3S)-3-hydroxy-4-(2-{[(1s,3R)-3-(trifluoromethoxy)cyclobutyl]oxy}acetamido)bicyclo[2.2.2]octan-1-yl]-3,4-dihydro-2H-1-benzopyran-2-carboxamide]",< 10
3,"COc1ncc(-c2cnn(C34CC(NC(=O)[C@H]5C[C@@H](O)c6cc(C(F)(F)F)c(F)cc6O5)(C3)C4)c2)cn1 [Compound 639, (2R,4R)-7-fluoro-4-hydroxy-N-{3-[4-(2-methoxypyrimidin-5-yl)-1H-pyrazol-1-yl]bicyclo[1.1.1]pentan-1-yl}-6-(trifluoromethyl)-3,4-dihydro-2H-1-benzopyran-2-carboxamide]",< 10
4,"O=C(COc1ccc(Cl)cc1O)NC12CC(n3cc(OCCOC(F)(F)F)cn3)(C1)C2 [Compound 616, 2-(4-chloro-2-hydroxyphenoxy)-N-(3-{4-[2-(trifluoromethoxy)ethoxy]-1H-pyrazol-1-yl}bicyclo[1.1.1]pentan-1-yl)acetamide]",< 10
5,"O=C(NC12CC(n3cc(O[C@H]4C[C@@H](COC(F)(F)F)C4)cn3)(C1)C2)[C@H]1C[C@@H](O)c2cc(Cl)ccc2O1 [Compound 589, (2R,4R)-6-chloro-4-hydroxy-N-{3-[4-({(1s,3S)-3-[(trifluoromethoxy)methyl]cyclobutyl}oxy)-1H-pyrazol-1-yl]bicyclo[1.1.1]pentan-1-yl}-3,4-dihydro-2H-1-benzopyran-2-carboxamide]",10 to 50
6,"O=C(NC12CC(n3cc(O[C@H]4C[C@H](COC(F)(F)F)C4)cn3)(C1)C2)[C@H]1C[C@@H](O)c2cc(Cl)ccc2O1 [Compound 588, (2R,4R)-6-chloro-4-hydroxy-N-{3-[4-(((1r,3R)-3-[(trifluoromethoxy)methyl]cyclobutyl}oxy)-1H-pyrazol-1-yl]bicyclo[1.1.1]pentan-1-yl)-3,4-dihydro-2H-1-benzopyran-2-carboxamide]",10 to 50
7,"O=C(NC12CC(n3cc(-c4ccc(OC(F)(F)F)cn4)cn3)(C1)C2)[C@H]1C[C@H](O)c2cc(C(F)(F)F)c(F)cc2O1 [Compound 634, (2R,4S)-7-fluoro-4-hydroxy-N-(3-{4-[5-(trifluoromethoxy)pyridin-2-yl]-1H-pyrazol-1-yl}bicyclo[1.1.1]pentan-1-yl)-6-(trifluoromethyl)-3,4-dihydro-2H-1-benzopyran-2-carboxamide]",< 10
8,"COc1cc2cn(C34CC(NC(=O)COc5ccc(Cl)c(Cl)c5)(C3)C4)nc2cn1 [Compound 622, 2-(3,4-dichlorophenoxy)-N-[3-(5-methoxy-2H-pyrazolo[3,4-c]pyridin-2-yl)bicyclo[1.1.1]pentan-1-yl]acetamide]",10 to 50
9,"COc1ccc2nn([C@H]3CC[C@H](NC(=O)COc4ccc(Cl)c(Cl)c4)CC3)cc2n1 [Compound 596, 2-(3,4-dichlorophenoxy)-N-[(1r,4r)-4-(5-methoxy-2H-pyrazolo[4,3-b]pyridin-2-yl)cyclohexyl]acetamide]",< 10
10,"O=C(NC12CC(n3cc(C[C@H]4C[C@@H](OC(F)(F)F)C4)cn3)(C1)C2)[C@H]1C[C@@H](O)c2cc(Cl)ccc2O1 [Compound 531, (2R,4R)-6-chloro-4-hydroxy-N-[3-(4-{[(1s,3R)-3-(trifluoromethoxy)cyclobutyl]methyl}-1H-pyrazol-1-yl)bicyclo[1.1.1]pentan-1-yl]-3,4-dihydro-2H-1-benzopyran-2-carboxamide]",10 to 50
11,"O=C(NC12CC(n3cc(N4CCC(OC(F)(F)F)C4)cn3)(C1)C2)[C@H]1C[C@@H](O)c2cc(Cl)ccc2O1 (stereo partly drawn) [Compound 325, (2R,4R)-6-chloro-4-hydroxy-N-(3-{4-[3-(trifluoromethoxy)pyrrolidin-1-yl]-1H-pyrazol-1-yl}bicyclo[1.1.1]pentan-1-yl)-3,4-dihydro-2H-1-benzopyran-2-carboxamide]",< 10
12,"O=C(NC12CC(n3cc(NCCCOC(F)(F)F)cn3)(C1)C2)[C@H]1C[C@@H](O)c2cc(Cl)ccc2O1 [Compound 444, (2R,4R)-6-chloro-4-hydroxy-N-[3-(4-{[3-(trifluoromethoxy)propyl]amino}-1H-pyrazol-1-yl)bicyclo[1.1.1]pentan-1-yl]-3,4-dihydro-2H-1-benzopyran-2-carboxamide]",< 10
13,"Cn1nc(C23CC(NC(=O)COc4ccc(Cl)c(F)c4)(C2)C3)cc1O[C@H]1C[C@@H](OC(F)(F)F)C1 [Compound 345, 2-(4-chloro-3-fluorophenoxy)-N-[3-(1-methyl-5-{[cis-3-(trifluoromethoxy)cyclobutyl]oxy}-1H-pyrazol-3-yl)bicyclo[1.1.1]pentan-1-yl]acetamide]",50 to 250
14,"O=C(NC12CC(n3cc(N4CC[C@@H](OC(F)F)C4)cn3)(C1)C2)[C@H]1C[C@@H](O)c2cc(Cl)ccc2O1 [Compound 318, (2R,4R)-6-chloro-N-(3-{4-[(3R)-3-(difluoromethoxy)pyrrolidin-1-yl]-1H-pyrazol-1-yl}bicyclo[1.1.1]pentan-1-yl)-4-hydroxy-3,4-dihydro-2H-1-benzopyran-2-carboxamide]",50 to 250
15,"O=C(NC12CC(n3cc(C(=O)N4CC[C@H](COC(F)(F)F)C4)cn3)(C1)C2)[C@H]1C[C@@H](O)c2cc(Cl)ccc2O1 [Compound 400, (2R,4R)-6-chloro-4-hydroxy-N-[3-(4-{(3S)-3-[(trifluoromethoxy)methyl]pyrrolidine-1-carbonyl}-1H-pyrazol-1-yl)bicyclo[1.1.1]pentan-1-yl]-3,4-dihydro-2H-1-benzopyran-2-carboxamide]",10 to 50
16,"O=C(NC12CC(n3cc(C(=O)N4CC[C@@H](COC(F)(F)F)C4)cn3)(C1)C2)[C@H]1C[C@@H](O)c2cc(Cl)ccc2O1 [Compound 397, (2R,4R)-6-chloro-4-hydroxy-N-[3-(4-{(3R)-3-[(trifluoromethoxy)methyl]pyrrolidine-1-carbonyl}-1H-pyrazol-1-yl)bicyclo[1.1.1]pentan-1-yl]-3,4-dihydro-2H-1-benzopyran-2-carboxamide]",50 to 250
17,"O=C(NC12CC(c3cn(-c4ccc(OC(F)(F)F)cc4)nn3)(C1)C2)[C@H]1C[C@@H](O)c2cc(Cl)ccc2O1 [Compound 360, (2R,4R)-6-chloro-4-hydroxy-N-(3-{1-[4-(trifluoromethoxy)phenyl]-1H-1,2,3-triazol-4-yl}bicyclo[1.1.1]pentan-1-yl)-3,4-dihydro-2H-1-benzopyran-2-carboxamide]",< 10
18,"O=C(NC12CC(n3cc(N4CC[C@H](OC(F)(F)F)C4)cn3)(C1)C2)[C@H]1C[C@@H](O)c2cc(Cl)ccc2O1 [Compound 355, (2R,4R)-6-chloro-4-hydroxy-N-(3-{4-[(3S)-3-(trifluoromethoxy)pyrrolidin-1-yl]-1H-pyrazol-1-yl}bicyclo[1.1.1]pentan-1-yl)-3,4-dihydro-2H-1-benzopyran-2-carboxamide]",10 to 50
19,"C[C@@H](COC(F)(F)F)Oc1cnn(C23CC(NC(=O)[C@H]4C[C@@H](O)c5cc(Cl)ccc5O4)(C2)C3)c1 [Compound 439, (2R,4R)-6-chloro-4-hydroxy-N-[3-(4-{[(2S)-1-(trifluoromethoxy)propan-2-yl]oxy}-1H-pyrazol-1-yl)bicyclo[1.1.1]pentan-1-yl]-3,4-dihydro-2H-1-benzopyran-2-carboxamide]",< 10
20,"O=C(COc1ccc(Cl)c(F)c1)NC12CC(n3cc(OCCCOC(F)(F)F)cn3)(C1)C2 [Compound 454, 2-(4-chloro-3-fluorophenoxy)-N-(3-{4-[3-(trifluoromethoxy)propoxy]-1H-pyrazol-1-yl}bicyclo[1.1.1]pentan-1-yl)acetamide]",< 10
21,"O=C(COc1ccc(Cl)c(F)c1)NC12CC(C(=O)NC34CC(C(F)(F)F)(C3)C4)(C1)C2 [Compound 353, 3-[2-(4-chloro-3-fluorophenoxy)acetamido]-N-[3-(trifluoromethyl)bicyclo[1.1.1]pentan-1-yl]bicyclo[1.1.1]pentane-1-carboxamide]",50 to 250
22,"O=C(NC12CC(n3cc(-c4ccc(OC(F)(F)F)cn4)cn3)(C1)C2)[C@@H]1C[C@@H](O)c2cc(Cl)ccc2O1 [Compound 346, (2S,4R)-6-chloro-4-hydroxy-N-(3-{4-[5-(trifluoromethoxy)pyridin-2-yl]-1H-pyrazol-1-yl}bicyclo[1.1.1]pentan-1-yl)-3,4-dihydro-2H-1-benzopyran-2-carboxamide]",< 10
23,"O=C(NC12CC(n3cc(O[C@H]4C[C@@H](OC(F)(F)F)C4)cn3)(C1)C2)[C@H]1C[C@@H](O)c2cc(Cl)ccc2O1 [Compound 409, (2R,4R)-6-chloro-4-hydroxy-N-[3-(4-{[cis-3-(trifluoromethoxy)cyclobutyl]oxy}-1H-pyrazol-1-yl)bicyclo[1.1.1]pentan-1-yl]-3,4-dihydro-2H-1-benzopyran-2-carboxamide]",< 10
24,"O=C(NC12CC(n3cc(-c4ccc(C(F)(F)F)cn4)cn3)(C1)C2)[C@@H]1C[C@@H](O)c2cc(Cl)c(F)cc2O1 [Compound 477, (2S,4R)-6-chloro-7-fluoro-4-hydroxy-N-(3-{4-[5-(trifluoromethyl)pyridin-2-yl]-1H-pyrazol-1-yl}bicyclo[1.1.1]pentan-1-yl)-3,4-dihydro-2H-1-benzopyran-2-carboxamide]",< 10
25,"O=C(CO[C@H]1C[C@@H](OC(F)(F)F)C1)NC12CC(NC(=O)[C@H]3C[C@@H](O)c4cc(Cl)ccc4O3)(C1)C2 (racemic) [Compound 114, rac-(2R,4R)-6-chloro-4-hydroxy-N-[3-(2-{[(1s,3s)-3-(trifluoromethoxy)cyclobutyl]oxy}acetamido)bicyclo[1.1.1]pentan-1-yl]-3,4-dihydro-2H-1-benzopyran-2-carboxamide]",< 10
